Assay results published in publication PMC7073140, “Hybridization with Insect Cecropin A (1–8) Improve the Stability and Selectivity of Naturally Occurring Peptides” (International Journal of Molecular Sciences, 2020).
In brackets after ≈: the same amount, converted by molar mass. Residues, ends and D or L forms follow the SMILES beside them.

Columns and labels:
Format in all cases: cell-based
[1] = system: S. aureus ATCC 29213; conditions: ATCC 29213, 2 h
Description: (§1) Minimum inhibitory concentrations (MICs) were determined as previously described. […] The bacteria then adjusted to a cell density of 5×10^5 CFU mL^−1 in MHB. […] The mixtures were incubated at 37 °C for 18–24 h. The MICs were calculated as the lowest concentration of the peptide that prevented visible turbidity. The tests were performed in triplicate using three replicates for each experiment. Serum stability was determined according to the method previously described. Human serum was added in the peptide solution with the volume ratio of 1:1 in which the final concentration of 50% v/v of serum was yielded. Serum-peptide mixtures with the final concentration of 25% and 12.5% v/v serum were also prepared. Subsequently, the mixture was incubated at 37 °C for 2h. The antimicrobial activities of serum-preincubated peptides were determined according the MIC assay described above.

[2] = system: E. coli ATCC 25922; conditions: ATCC 25922, 2 h
Description: as §1

[3] = system: human erythrocytes; assay: Hemolytic activity; conditions: for HC10, concentration that induced 10% hemolysis of human red blood cells: probit regression in SPSS, unit not given (peptides tested at 0.5–256 µM)
Description: Hemolytic activities of the peptides were determined according to the method described previously. Fresh heparinized human whole blood from healthy donor (Yang Yang, Harbin, China) was centrifuged at 1000 g for 5 min at 4 °C. The obtained erythrocytes were washed three times and resuspended in PBS. Then, 50 μL of erythrocyte solution was incubated with 50 μL peptides at different concentrations at 37 °C for 1 h. Erythrocytes in either PBS or 0.1% Triton X-100 (Sigma-Aldrich, Shanghai, China) were used as negative and positive controls, respectively. After centrifugation at 1000 g for 5 min at 4 °C, the supernatant was transferred into a new 96-well plate and the extent of hemolysis was monitored using a multimode microplate reader (Infinite M200 Pro, Tecan, Switzerland) at 576 nm. The percentage of hemolysis was calculated according to the following formula:hemolysis (%) = [(A-A0)/(At-A0)]×100(2) where A is the absorbance of the peptide sample, A0 and At represent 0% and 100% hemolysis determined in 10 mM PBS and 0.1% Triton X-100, respectively. Results were expressed as average values from three independent experiments and each experiment was performed in triplicate.
For statistical evaluation, data were analyzed using the Statistical Product and Service Solutions software (SPSS Inc., Chicago, IL, USA) by one-way ANOVA and the values were presented as mean ± standard error (SE). HC10 values were calculated by using probit regression in SPSS 19.

[4] = system: S. faecalis ATCC29212
Description: (§2) Minimum inhibitory concentrations (MICs) were determined as previously described. The bacteria used to determine the MIC were first cultured in Mueller-Hilton broth (MHB) (AoBoX, Beijing, China) overnight at 37 °C and transferred into a fresh and sterile MHB and grown to an OD600 of 0.4. The bacteria then adjusted to a cell density of 5×10^5 CFU mL^−1 in MHB. Peptides were serially diluted in 0.01% acetic acid and 0.2% bovine serum albumin (BSA) (Sigma-Aldrich, Shanghai, China) in a volume of 50 μL per well to achieve final concentration ranging from 1 to 128 μM in sterile 96-well plates. 50 μL of prepared bacterial suspension was added to each well. The mixtures were incubated at 37 °C for 18–24 h. The MICs were calculated as the lowest concentration of the peptide that prevented visible turbidity. The tests were performed in triplicate using three replicates for each experiment.

[5] = system: E. coli UB 1005
Description: as §2

[6] = system: S. epidermidis ATCC12228
Description: as §2

[7] = system: E. coli ATCC25922
Description: as §2

[8] = system: P. aeruginosa ATCC27853
Description: as §2

[9] = system: S. typhimurium ATCC14028
Description: as §2

[10] = system: S. typhimurium C7731
Description: as §2

[11] = system: S. pullorum C7913
Description: as §2

[12] = system: S. aureus ATCC29213
Description: as §2

[13] = system: Gram-positive and Gram-negative bacteria; assay: MIC over all tested bacterial strains (range, geometric mean); conditions: for GM, geometric mean of the MIC values: all tested strains, 256 μM used where no activity at 128 μM
Description: as §2
It is calculated as HC10/GM.

SMILES	MIC after incubating with human serum [1] [µM]	MIC after incubating with human serum [2] [µM]	hemolytic activity ([3]; 256 μM peptide, 37 °C, 1 h, absorbance 576 nm, average of three independent experiments) [%]	HC10, concentration that induced 10% hemolysis of human red blood cells ([3]; 37 °C, 1 h)	fold decrease of hemolysis compared to CA ([3]; at 256 μM)	MIC [4] [µM]	MIC [5] [µM]	MIC [6] [µM]	MIC [7] [µM]	MIC [8] [µM]	MIC [9] [µM]	MIC [10] [µM]	MIC [11] [µM]	MIC [12] [µM]	MICs range against all tested bacterial strains ([13]; all nine tested Gram-negative and Gram-positive strains) [µM]	GM, geometric mean of the MIC values [13] [µM]
CC[C@H](C)[C@H](NC(=O)[C@H](CCCCN)NC(=O)[C@H](CCCCN)NC(=O)[C@H](Cc1ccccc1)NC(=O)[C@H](CC(C)C)NC(=O)[C@H](CCCCN)NC(=O)[C@H](Cc1c[nH]c2ccccc12)NC(=O)[C@@H](N)CCCCN)C(=O)N[C@@H](CCCNC(=N)N)C(=O)N[C@@H](Cc1ccccc1)C(=O)NCC(=O)N[C@@H](CCCNC(=N)N)C(=O)N[C@@H](Cc1ccccc1)C(=O)N[C@@H](CC(C)C)C(=O)N[C@@H](CCCNC(=N)N)C(=O)N[C@@H](CCCCN)C(=O)N[C@H](C(=O)N[C@@H](CCCNC(=N)N)C(=O)N[C@@H](CCCNC(=N)N)C(=O)N[C@@H](Cc1ccccc1)C(=O)N[C@@H](CCCNC(=N)N)C(=O)N1CCC[C@H]1C(=O)N[C@@H](CCCCN)C(N)=O)[C@@H](C)CC [CA-FO] (H-KWKLFKKIRFGRFLRKIRRFRPK-NH2)	4	4	13.83	143.34	approximately 5 fold	4 (≈ 12.4 µg/mL)	2 (≈ 6.21 µg/mL)	4 (≈ 12.4 µg/mL)	2 (≈ 6.21 µg/mL)	4 (≈ 12.4 µg/mL)	4 (≈ 12.4 µg/mL)	4 (≈ 12.4 µg/mL)	8 (≈ 24.8 µg/mL)	2 (≈ 6.21 µg/mL)	2 to 8	3.43
CC[C@H](C)[C@H](NC(=O)[C@H](CCCCN)NC(=O)[C@H](CCCCN)NC(=O)[C@H](Cc1ccccc1)NC(=O)[C@H](CC(C)C)NC(=O)[C@H](CCCCN)NC(=O)[C@H](Cc1c[nH]c2ccccc12)NC(=O)[C@@H](N)CCCCN)C(=O)N[C@@H](Cc1c[nH]c2ccccc12)C(=O)N[C@@H](Cc1c[nH]c2ccccc12)C(=O)N1CCC[C@H]1C(=O)N[C@@H](Cc1ccccc1)C(=O)N[C@@H](CC(C)C)C(=O)N[C@@H](CCCNC(=N)N)C(=O)N[C@@H](CCCNC(=N)N)C(N)=O [CA-TP] (H-KWKLFKKIWWPFLRR-NH2)	4	4		49.66		2 (≈ 4.26 µg/mL)	4 (≈ 8.53 µg/mL)	2 (≈ 4.26 µg/mL)	2 (≈ 4.26 µg/mL)	4 (≈ 8.53 µg/mL)	4 (≈ 8.53 µg/mL)	2 (≈ 4.26 µg/mL)	4 (≈ 8.53 µg/mL)	2 (≈ 4.26 µg/mL)		2.72
CC[C@H](C)[C@H](NC(=O)[C@H](CCCCN)NC(=O)[C@H](CCCCN)NC(=O)[C@H](Cc1ccccc1)NC(=O)[C@H](CC(C)C)NC(=O)[C@H](CCCCN)NC(=O)[C@H](Cc1c[nH]c2ccccc12)NC(=O)[C@@H](N)CCCCN)C(N)=O [CA] (H-KWKLFKKI-NH2)				15.54		>128	>128	>128	64 (≈ 69.7 µg/mL)	>128	>128	>128	>128	128 (≈ 139 µg/mL)		203.19
CC[C@H](C)[C@H](NC(=O)[C@H](CCCCN)NC(=O)[C@H](CCCNC(=N)N)NC(=O)[C@H](CC(C)C)NC(=O)[C@H](Cc1ccccc1)NC(=O)[C@H](CCCNC(=N)N)NC(=O)CNC(=O)[C@H](Cc1ccccc1)NC(=O)[C@@H](N)CCCNC(=N)N)C(=O)N[C@@H](CCCNC(=N)N)C(=O)N[C@@H](CCCNC(=N)N)C(=O)N[C@@H](Cc1ccccc1)C(=O)N[C@@H](CCCNC(=N)N)C(=O)N1CCC[C@H]1C(=O)N[C@@H](CCCCN)C(N)=O [FO] (H-RFGRFLRKIRRFRPK-NH2)				2.78		16 (≈ 32.5 µg/mL)	16 (≈ 32.5 µg/mL)	16 (≈ 32.5 µg/mL)	32 (≈ 65 µg/mL)	32 (≈ 65 µg/mL)	32 (≈ 65 µg/mL)	32 (≈ 65 µg/mL)	16 (≈ 32.5 µg/mL)	64 (≈ 130 µg/mL)		25.40
CC(C)C[C@H](NC(=O)[C@H](Cc1ccccc1)NC(=O)[C@@H]1CCCN1C(=O)[C@H](Cc1c[nH]c2ccccc12)NC(=O)[C@@H](N)Cc1c[nH]c2ccccc12)C(=O)N[C@@H](CCCNC(=N)N)C(=O)N[C@@H](CCCNC(=N)N)C(N)=O [TP] (H-WWPFLRR-NH2)				25.06		>128	128 (≈ 136 µg/mL)	32 (≈ 33.9 µg/mL)	128 (≈ 136 µg/mL)	64 (≈ 67.8 µg/mL)	32 (≈ 33.9 µg/mL)	64 (≈ 67.8 µg/mL)	64 (≈ 67.8 µg/mL)	64 (≈ 67.8 µg/mL)		74.66
